From PMC5983563, “Defining ICR-Mo, an intrinsic colistin resistance determinant from Moraxella osloensis” (PLoS Genetics, 2018)

Legend:
ICR-Mo (AXE82_07515) = target: T1, ICR-Mo (AXE82_07515) (Faucicola osloensis, UniProt A0A378QCY4); assay: TLC of fluorescent lipid, LC/MS; type: biochemical; conditions: pH 7.5, 25°C, ~24 h, 0.2 mM substrate, 40 μM enzyme, 0.03% DDM
T1 construct: gene eptA; full-length synthetic gene in pET21a, membrane protein, Ni-NTA purified in DDM, ~60 kDa

EptA = target: T2, EptA (Neisseria gonorrhoeae, UniProt B4RMY8); assay: TLC of fluorescent lipid; type: biochemical; conditions: pH 7.5, 25°C, ~24 h, 0.2 mM substrate, 40 μM enzyme, 0.03% DDM
T2 construct: gene NGK_1498; full-length membrane protein, purified in DDM
T2 sequence (B4RMY8 entry or part of it): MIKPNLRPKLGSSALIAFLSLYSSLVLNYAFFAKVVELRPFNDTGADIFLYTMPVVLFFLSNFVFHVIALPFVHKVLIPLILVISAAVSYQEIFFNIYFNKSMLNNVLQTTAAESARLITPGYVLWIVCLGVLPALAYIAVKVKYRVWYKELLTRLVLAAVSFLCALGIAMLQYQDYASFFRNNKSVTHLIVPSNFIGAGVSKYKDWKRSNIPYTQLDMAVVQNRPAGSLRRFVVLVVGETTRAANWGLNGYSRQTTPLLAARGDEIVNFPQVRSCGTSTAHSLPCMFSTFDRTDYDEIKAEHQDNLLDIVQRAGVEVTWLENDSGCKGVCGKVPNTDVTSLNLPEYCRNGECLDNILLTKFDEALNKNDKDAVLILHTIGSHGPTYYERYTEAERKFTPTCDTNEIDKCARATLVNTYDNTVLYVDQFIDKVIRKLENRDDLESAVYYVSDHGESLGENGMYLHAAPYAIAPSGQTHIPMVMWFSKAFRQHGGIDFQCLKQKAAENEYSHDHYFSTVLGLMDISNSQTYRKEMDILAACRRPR

T1 sequence (A0A378QCY4 entry or part of it): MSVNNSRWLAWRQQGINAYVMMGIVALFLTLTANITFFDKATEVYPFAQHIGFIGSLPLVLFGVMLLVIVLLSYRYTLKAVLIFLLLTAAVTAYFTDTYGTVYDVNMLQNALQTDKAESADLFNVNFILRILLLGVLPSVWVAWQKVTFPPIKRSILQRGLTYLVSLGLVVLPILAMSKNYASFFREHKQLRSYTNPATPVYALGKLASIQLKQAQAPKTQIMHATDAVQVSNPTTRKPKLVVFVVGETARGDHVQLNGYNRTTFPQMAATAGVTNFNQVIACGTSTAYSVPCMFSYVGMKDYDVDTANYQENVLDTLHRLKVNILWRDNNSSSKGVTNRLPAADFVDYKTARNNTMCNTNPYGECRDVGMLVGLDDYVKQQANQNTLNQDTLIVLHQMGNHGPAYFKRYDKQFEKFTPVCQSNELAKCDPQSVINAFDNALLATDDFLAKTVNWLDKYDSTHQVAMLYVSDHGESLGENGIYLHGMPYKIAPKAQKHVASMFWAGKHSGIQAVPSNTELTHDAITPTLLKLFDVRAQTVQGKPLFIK

## CCCCCCCCCCCCCCCC(=O)OC[C@H](COP(=O)(O)OCCN)OC(=O)CCCCCCCCCCCNc1ccc([N+](=O)[O-])c2nonc12 [NBD-glycerol-3-PEA, 1-acyl-2-{12-[(7-nitro-2-1,3-benzoxadiazol-4-yl)amino]dodecanoyl}-sn-glycero-3-phosphoethanolamine]
ICR-Mo (AXE82_07515)
  TLC of fluorescent lipid, LC/MS: ICR-Mo displays an enzymatic activity of removing the PEA moiety from the lipid substrate
EptA
  TLC of fluorescent lipid: Minus denotes no addition of the enzyme of EptA/MCR-1/MCR-2/ICR-Mo
